Measured values: EPA's ToxValDB 9.5 (doi:10.2903/j.efsa.2015.3943)

What was measured:
[1] = tested on: Anas platyrhynchos
[2] = tested on: Canidae; details: subchronic; duration: 90 days; oral; Dog Other
[3] = tested on: Colinus virginianus
[4] = tested on: Mus musculus
[5] = tested on: Oryctolagus sp.; details: developmental; development
[6] = tested on: Rattus norvegicus; details: oral

Q: How did the LD50 ([1]; acute, oral, unspecified, mortality) turn out when CCCCOC(=O)[C@@H](C)Oc1ccc(Oc2ccc(C#N)cc2F)cc1 [Cyhalofop-butyl] was run?
A: The LD50 was > 2250 mg/kg-day.

Q: And the NOEC ([1]; reproductive, reproduction)?
A: The NOEC was 80 mg/kg-day.

Q: What about the LC50 ([1]; short-term, oral, feed, mortality) of the same molecule?
A: The LC50 was > 5620 mg/kg.

Q: And the NOAEL [2]?
A: Its NOAEL is 3 mg/kg-day.

Q: And the LC50 ([3]; acute, oral, diet, mortality)?
A: The LC50 was > 5620 mg/kg.

Q: And the LD50 ([3]; acute, oral, mortality)?
A: Its LD50 is > 2250 mg/kg-day.

Q: And the NOEC ([3]; reproduction developmental, reproduction)?
A: The NOEC was 80 mg/kg-day.

Q: What about the NOAEL ([4]; chronic, duration: 78 weeks) of the same molecule?
A: The NOAEL was 0.8 mg/kg-day.

Q: And the NOAEL ([4]; subchronic, duration: 90 days, oral)?
A: Its NOAEL is 3 mg/kg-day.

Q: What about the NOAEL [5] of the same molecule?
A: Its NOAEL is 40 mg/kg-day.

Q: And the LD50 ([6]; acute, mortality)?
A: Its LD50 is > 5000 mg/kg-day.

Q: And the NOAEL ([6]; subchronic, duration: 90 days)?
A: The NOAEL was 3 mg/kg-day.
